From patent US10711011B2, “Substituted oxazolidines as anti-bacterial agents” (BUGWORKS RESEARCH, INC., priority 2016, dated 2020) come the findings set out here.

pIC50: −log10 of the molar value. Converted amounts (≈) assume the structure as drawn.

Assay [1] deals with K. pneumoniae (Kpn) clinical strains. Nature of the assay: MIC50 and MIC90 studies using clinical strains (CLSI guidelines). Type of assay: cell-based.
For the next assay, the system named is P. aurigenosa ATCC 27853. Nature of the assay: Minimum Inhibitory Concentration (MIC) in LB media. Type of assay: cell-based, Pseudomonas aurigenosa. The settings on record: LB Media. An excerpt: (§1) The compounds of Formula I are of interest due to their potent antibacterial effects. The ability of the invention compounds disclosed herein to achieve an antibacterial effect may be evaluated with regard to their ability to inhibit the growth of bacterial species like Escherichia coli ATCC 25922, Staphylococcus aureus ATCC 29213, Klebsiella pneumoniae ATCC 13883, Acinetobacter baumannii ATCC 19606, Pseudomonas aurigenosa ATCC 27853, Enterococcus faecalis ATCC 29212 and Enterococcus faecalis ATCC 29212 using an assay based on the following Minimum Inhibitory Concentration (MIC) protocol:
(§2) The test bacteria are grown in Luria Bertani Broth (HIMEDIA M1245), 25 grams of the powder is dissolved in 1000 ml distilled water and sterilized by autoclaving at 15 lbs pressure (121° C.) for 20 minutes. The medium sterility is checked by incubating at 37° C. for a period of 48 h.
(§3) Bacterial cultures that are stored as glycerol stocks at −80° C. are sub cultured on LB agar plates to obtain isolated colonies. A single colony of each strain is cultured in LB broth. The cultures are incubated at 37° C., 200 rpm till they reach an optical density (OD at 600 nm) of 0.8 to 1. […] Test compounds are dissolved in dimethyl sulfoxide (DMSO) to a stock concentration of 4 mg/ml. A twofold dilution series of this DMSO stock is prepared in a 96 well V bottom microtitre plate from rows A to H. A 3 μL volume of these dilutions are transferred to a 96-well flat bottom microtitre assay plate. Controls to monitor the effects of DMSO and media sterility are included. Each well is inoculated with 150 μL of the above diluted culture. The plates are incubated at 37° C. overnight in a humidified incubator. The following morning, the plates are read using a Spectrophotometer at 600 nm wavelength. […] The antibacterial activity (MIC) determined against representative Gram positive (S. aureus, E. faecalis) and Gram negative (E. coli, P. aurigenosa, K. pneumoniae and A. baumannii) pathogen were reported Table 1.

For the next assay, the system named is E. coli ATCC 25922. Nature of the assay: Minimum Inhibitory Concentration (MIC) in LB media. It is filed as cell-based, Escherichia coli. The settings on record: LB Media.
Text: as §1, §2, §3

The next assay has as its target E. coli topoisomerase IV (Escherichia coli, UniProt P0AFI2+P20083). Nature of the assay: biochemical. The settings on record: decatenation assay; read-out: E. coli Topo IV IC50.
The next assay has as its target E. coli DNA gyrase (Escherichia coli, UniProt P0AES4+P0AES6). Nature of the assay: biochemical. The settings on record: supercoiling assay.
For assay [2], the system named is A. baumannii (Aba) clinical strains. Nature of the assay: MIC50 and MIC90 studies using clinical strains (CLSI guidelines). Type of assay: cell-based.
For another assay, the system named is K. pneumoniae ATCC 13883. Nature of the assay: Minimum Inhibitory Concentration (MIC) in LB media. It is filed as cell-based, Klebsiella pneumoniae. The settings on record: LB Media.
Text: as §1, §2, §3

A further assay relates to A. baumannii ATCC 19606. Nature of the assay: Minimum Inhibitory Concentration (MIC) in LB media. The settings on record: LB Media. It is filed as cell-based, Acinetobacter baumannii.
Text: as §1, §2, §3

Another assay has as its system S. aureus ATCC 29213. Nature of the assay: Minimum Inhibitory Concentration (MIC) in LB media. It is filed as cell-based, Staphylococcus aureus. The settings on record: LB Media.
Text: as §1, §2, §3

Another assay deals with E. coli clinical strains. Nature of the assay: MIC50 and MIC90 studies using clinical strains (CLSI guidelines). It is filed as cell-based.
The subject of another assay is E. faecalis ATCC 29212. Nature of the assay: Minimum Inhibitory Concentration (MIC) in LB media. It is filed as cell-based, Enterococcus faecalis.
Text: as §1, §2, §3

Assay [3] has as its system P. aurigenosa (Pae) clinical strains. Nature of the assay: MIC50 and MIC90 studies using clinical strains (CLSI guidelines). Type of assay: cell-based.
Setting [4] is: Klebsiella pneumoniae, Kpn, 211 strains.
Setting [5] is: Acinetobacter baumannii, Aba, 169 strains.
The mark [6] stands for this setting: Escherichia coli, E. coli, 201 strains.

E. coli DNA gyrase, sequence (P0AES4 whole entry, one chain of several): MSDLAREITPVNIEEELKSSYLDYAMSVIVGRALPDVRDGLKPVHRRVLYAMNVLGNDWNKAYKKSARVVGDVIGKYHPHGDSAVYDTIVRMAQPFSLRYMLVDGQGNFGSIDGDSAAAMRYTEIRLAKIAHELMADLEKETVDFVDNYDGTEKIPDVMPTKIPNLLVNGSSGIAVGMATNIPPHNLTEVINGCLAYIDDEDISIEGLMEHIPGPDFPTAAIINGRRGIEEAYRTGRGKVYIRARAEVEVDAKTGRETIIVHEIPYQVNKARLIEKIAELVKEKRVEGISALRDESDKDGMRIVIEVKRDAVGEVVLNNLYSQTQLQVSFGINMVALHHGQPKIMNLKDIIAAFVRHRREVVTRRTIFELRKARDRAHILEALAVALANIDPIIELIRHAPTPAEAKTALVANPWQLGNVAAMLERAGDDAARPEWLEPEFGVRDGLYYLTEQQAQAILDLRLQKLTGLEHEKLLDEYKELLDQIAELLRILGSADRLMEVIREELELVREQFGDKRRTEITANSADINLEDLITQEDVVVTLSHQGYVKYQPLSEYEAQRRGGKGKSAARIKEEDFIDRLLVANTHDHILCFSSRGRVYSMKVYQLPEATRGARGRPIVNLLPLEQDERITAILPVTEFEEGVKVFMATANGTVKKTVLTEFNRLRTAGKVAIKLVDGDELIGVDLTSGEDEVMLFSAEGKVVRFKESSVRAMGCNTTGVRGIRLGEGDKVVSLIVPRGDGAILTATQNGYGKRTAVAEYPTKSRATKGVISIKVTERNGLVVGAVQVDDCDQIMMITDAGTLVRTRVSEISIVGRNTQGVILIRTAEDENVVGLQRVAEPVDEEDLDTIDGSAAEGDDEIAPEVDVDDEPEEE
E. coli topoisomerase IV, sequence (P0AFI2 whole entry): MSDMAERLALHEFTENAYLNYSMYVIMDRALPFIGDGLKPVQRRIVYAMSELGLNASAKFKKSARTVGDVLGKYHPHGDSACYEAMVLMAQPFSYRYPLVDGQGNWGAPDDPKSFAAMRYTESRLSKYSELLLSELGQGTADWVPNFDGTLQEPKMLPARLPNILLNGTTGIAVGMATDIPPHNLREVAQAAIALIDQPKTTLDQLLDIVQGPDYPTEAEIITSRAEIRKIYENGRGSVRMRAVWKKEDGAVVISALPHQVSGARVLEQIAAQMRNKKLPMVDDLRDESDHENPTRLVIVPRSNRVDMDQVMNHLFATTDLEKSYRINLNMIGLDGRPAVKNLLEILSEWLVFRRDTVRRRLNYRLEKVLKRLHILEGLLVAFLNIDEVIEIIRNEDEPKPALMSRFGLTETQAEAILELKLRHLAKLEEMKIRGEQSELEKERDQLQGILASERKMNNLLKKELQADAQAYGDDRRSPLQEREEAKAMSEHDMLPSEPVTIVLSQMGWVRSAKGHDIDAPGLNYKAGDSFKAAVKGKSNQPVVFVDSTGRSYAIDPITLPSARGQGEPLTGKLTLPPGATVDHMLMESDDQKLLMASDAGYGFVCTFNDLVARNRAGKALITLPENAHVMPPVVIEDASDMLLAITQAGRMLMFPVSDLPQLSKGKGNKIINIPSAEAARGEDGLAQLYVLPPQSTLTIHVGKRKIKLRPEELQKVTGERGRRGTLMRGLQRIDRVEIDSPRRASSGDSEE
E. coli topoisomerase IV, sequence (P20083 whole entry): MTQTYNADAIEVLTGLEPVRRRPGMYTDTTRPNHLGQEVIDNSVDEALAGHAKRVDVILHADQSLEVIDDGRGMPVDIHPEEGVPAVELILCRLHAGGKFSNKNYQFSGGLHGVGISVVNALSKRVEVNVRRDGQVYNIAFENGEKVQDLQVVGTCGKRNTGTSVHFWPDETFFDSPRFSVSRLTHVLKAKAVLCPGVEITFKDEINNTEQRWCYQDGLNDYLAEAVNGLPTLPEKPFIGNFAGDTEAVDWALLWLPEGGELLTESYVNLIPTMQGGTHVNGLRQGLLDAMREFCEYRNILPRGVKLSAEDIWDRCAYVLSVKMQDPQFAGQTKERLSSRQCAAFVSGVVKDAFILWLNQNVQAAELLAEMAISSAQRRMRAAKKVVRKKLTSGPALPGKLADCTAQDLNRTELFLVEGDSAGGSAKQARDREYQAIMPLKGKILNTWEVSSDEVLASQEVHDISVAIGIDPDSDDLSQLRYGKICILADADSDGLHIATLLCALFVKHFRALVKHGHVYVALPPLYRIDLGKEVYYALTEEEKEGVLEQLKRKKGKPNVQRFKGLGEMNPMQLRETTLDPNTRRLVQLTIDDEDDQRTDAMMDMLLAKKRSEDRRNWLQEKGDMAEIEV

Broadly, the MIC50 is the lowest concentration that inhibits either 50% of growth or 50% of the strains tested, depending on the study. For orientation: MIC90 means an inhibitory concentration at the 90% level, which refers to growth in some studies and to a panel of isolates in others. A low value points to greater potency. As a reminder, the pIC50 is the negative decadic logarithm of the IC50, by convention in mol/L. Consider `CN1C(=O)Cc2ccc(F)c(CCNCCC3CN(c4ccc5c(n4)NC(=O)CO5)C(=O)O3)c21` (single isomer, unassigned) [Example 14, 6-(5-(2-((2-(6-fluoro-1-methyl-2-oxoindolin-7-yl)ethyl)amino)ethyl)-2-oxooxazolidin-3-yl)-2H-pyrido[3,2-b][1,4]oxazin-3(4H)-one], for which the MIC50 in assay [1] (setting [4]) came out at 1 µg/mL (≈ 2.13 µM); in assay [2] (setting [5]), 0.25 µg/mL (≈ 0.533 µM); in the assay with E. coli clinical strains (setting [6]), 0.25 µg/mL (≈ 0.533 µM); in assay [3] (Pae, 215 strains), 0.5 µg/mL (≈ 1.07 µM). Also, the MIC90 in [1] (setting [4]) turned out to be 4 µg/mL (≈ 8.52 µM); in assay [2] (setting [5]), 0.5 µg/mL (≈ 1.07 µM); against E. coli clinical strains (setting [6]) it was 0.5 µg/mL (≈ 1.07 µM); in [3] (Pae, 215 strains), 1 µg/mL (≈ 2.13 µM). Besides, the MIC ATCC13883 in assay [1] (Kpn reference strain ATCC13883, unit inferred) is 0.25 µg/mL (≈ 0.533 µM). Besides, the Minimum (MIC) came to 0.06 µg/mL in assay [1] (Kpn, 211 strains, unit inferred); 0.015 in assay [2] (Aba, 169 strains, unit not given, in µg/mL); 0.03 µg/mL in the assay with E. coli clinical strains (E. coli, 201 strains, unit inferred); 0.03125 in [3] (Pae, 215 strains, unit not given, in µg/mL). For the same compound, the “Minimum Inhibitory Concentration P. aurigenosa ATCC 27853” value in the assay with P. aurigenosa ATCC 27853 is 0.5 µg/mL. For the same compound, the “Minimum Inhibitory Concentration E. coli ATCC 25922” value with E. coli ATCC 25922 was determined as 0.03 µg/mL. Besides, the pIC50 at E. coli topoisomerase IV was 7.44; at E. coli DNA gyrase it was 7.00. In assay [2] (Aba reference strain ATCC19606, unit inferred), the MIC ATCC19606 worked out at 0.06 µg/mL (≈ 0.128 µM). Further, in the assay on K. pneumoniae ATCC 13883, the “Minimum Inhibitory Concentration K. pneumoniae ATCC 13883” value is 0.125 µg/mL. The “Minimum Inhibitory Concentration A. baumannii ATCC 19606” value with A. baumannii ATCC 19606 is 0.03 µg/mL. In the assay with S. aureus ATCC 29213, the “Minimum Inhibitory Concentration S. aureus ATCC 29213” value was found to be 0.03 µg/mL. In addition, in the assay with E. coli clinical strains (E. coli reference strain ATCC25922, no unit in this row (MIC50/MIC90 rows: μg/ml)), the MIC ATCC25922 was found to be 0.06 µg/mL (≈ 0.128 µM). For the same compound, in the assay with E. faecalis ATCC 29212, the “Minimum Inhibitory Concentration E. faecalis ATCC 29212” value is 0.25 µg/mL. Also, the MIC ATCC27853 in [3] (Pae reference strain ATCC27853, unit inferred) came to 0.5 µg/mL (≈ 1.07 µM).
